The text below walks through data of patent publication US12213955B2 (priority 2017, dated 2025).

In series [1] the test system is MERS-CoV. It is filed as cell-based.
The test system of series [2] is MERS-CoV. It is filed as cell-based, MERS-CoV (HCoV-EMC/2012).
The test system of series [3] is MERS-CoV. Format: cell-based. This is another data set of the same source.
Series [4] relates to MERS-CoV. The series can be described thus: microbe, parasite or virus in culture. Format: cell-based.
In series [5] the test system is human adenovirus type 5 (AdV5). It is filed as cell-based.
For series [6], the system named is MERS-CoV. It is filed as cell-based. The source holds these as a separate data set.
A further series deals with T1, n-SREBP2 (Homo sapiens, UniProt Q12772).
T1 construct: requires cleavage of pre-SREBPs to release the nuclear form (n-SREBPs); endogenous in cells; Huh7 in the sister assay
T1 sequence (Q12772 1-484 limits assumed): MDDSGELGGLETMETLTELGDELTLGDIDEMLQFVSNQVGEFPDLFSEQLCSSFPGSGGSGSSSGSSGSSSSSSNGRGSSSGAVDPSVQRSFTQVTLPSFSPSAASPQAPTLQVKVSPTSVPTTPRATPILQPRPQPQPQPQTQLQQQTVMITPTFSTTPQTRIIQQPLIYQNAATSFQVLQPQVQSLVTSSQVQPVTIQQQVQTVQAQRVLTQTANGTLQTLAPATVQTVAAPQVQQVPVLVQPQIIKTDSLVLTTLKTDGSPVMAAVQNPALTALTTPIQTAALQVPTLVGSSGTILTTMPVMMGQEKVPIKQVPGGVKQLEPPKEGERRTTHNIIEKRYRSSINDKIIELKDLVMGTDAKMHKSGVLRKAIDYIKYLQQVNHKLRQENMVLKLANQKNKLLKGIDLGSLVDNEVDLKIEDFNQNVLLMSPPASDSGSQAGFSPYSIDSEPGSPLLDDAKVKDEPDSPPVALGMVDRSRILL
Kind of series: SREBP2 DNA (SRE) binding activity assay. The following applies: dose-dependent. Format: biochemical.

The subject of series [7] is MERS-CoV. The following applies: mouse, in vivo.
Series [8] relates to MERS-CoV. Format: cell-based, MERS-CoV (HCoV-EMC/2012). This is another data set of the same source.
In series [9] the test system is MERS-CoV. Format: cell-based. The source holds these as a separate data set.
Another series has as its system TNF-α, IL-1β, IL-8. It is filed as cell-based, human.
Series [10] deals with fatty acid and cholesterol synthesis genes. Format: cell-based, human.
Series [11] has as its system MERS-CoV. Format: cell-based. The source holds these as a separate data set.
Series [12] deals with MERS-CoV. Format: cell-based. This is another data set of the same source.
Series [13] has as its system double-membrane vesicles (DMVs). It is filed as cell-based, African green monkey.
The next series has as its system HMGCS promoter. Format: cell-based, hamster.
The test system of series [14] is MERS-CoV nucleoprotein (NP). It is filed as cell-based.
Series [15] deals with MERS-CoV. Format: cell-based. This is another data set of the same source.
The test system of a further series is enterovirus-A71 (EV-A71). It is filed as cell-based, Enterovirus A71 (SZ/HK08-5).
Series [16] deals with MERS-CoV. Format: cell-based. The source holds these as a separate data set.
The next series deals with SARS-CoV. It is filed as cell-based, SARS-CoV (GZ50).
For series [17], the system named is TK, CMV and SV40 promoters. It is filed as cell-based.
Another series concerns the target T2, n-SREBP1 (Homo sapiens, UniProt P36956).
T2 construct: requires cleavage of pre-SREBPs to release the nuclear form (n-SREBPs); endogenous in cells; host or cells: Huh7 nuclear extract
T2 sequence (P36956 1-490 limits assumed): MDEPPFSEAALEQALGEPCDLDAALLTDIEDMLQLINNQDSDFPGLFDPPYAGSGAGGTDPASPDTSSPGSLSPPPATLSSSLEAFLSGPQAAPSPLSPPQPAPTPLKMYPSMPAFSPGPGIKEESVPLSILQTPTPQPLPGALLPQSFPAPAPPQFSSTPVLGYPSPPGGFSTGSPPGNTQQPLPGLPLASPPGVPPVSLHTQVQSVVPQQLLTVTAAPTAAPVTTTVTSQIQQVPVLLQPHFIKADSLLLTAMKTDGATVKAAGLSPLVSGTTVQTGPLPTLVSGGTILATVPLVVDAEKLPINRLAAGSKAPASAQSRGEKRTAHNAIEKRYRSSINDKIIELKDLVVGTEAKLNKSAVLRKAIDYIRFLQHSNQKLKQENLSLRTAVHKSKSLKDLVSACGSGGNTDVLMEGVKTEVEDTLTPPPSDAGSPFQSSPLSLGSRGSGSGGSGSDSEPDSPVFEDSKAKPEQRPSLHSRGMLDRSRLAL
The series can be described thus: SREBP1 DNA (SRE) binding activity assay. It is filed as biochemical.

The test system of series [18] is MERS-CoV. Format: cell-based, MERS-CoV (HCoV-EMC/2012). The source holds these as a separate data set.
The test system of another series is Influenza A(H7N9) virus. The following applies: mouse, in vivo.
The next series relates to Huh7 cells. Format: cell-based, human.
For another series, the system named is Zika virus (ZIKV). Format: cell-based, ZIKV (Puerto Rico strain PRVABC59).
The subject of series [19] is MERS-CoV. It is filed as cell-based. This is another data set of the same source.
The conditions of series [20]: mouse models, reported [43]; cited from earlier work.
The test system of the next series is Calu-3 cells. Format: cell-based, human.
The test system of series [21] is MERS-CoV. Format: cell-based. This is another data set of the same source.
Another series deals with FAS-promoter. It is filed as cell-based.
Series [22] deals with MERS-CoV. It is filed as cell-based. The source holds these as a separate data set.
Setting [23] is: Middle East respiratory syndrome-related coronavirus, read-out: IC50 anti-MERS-CoV activity.

Read-outs that look alike come from different tables or passages of the source. A value given as a limit tells only on which side of the number the result lay.

In the case of PF429242, the “reduction in viral titer” value in the series with MERS-CoV [1] is given as “about 1 log PFU/ml”.
Consider `C=C1CC[C@H](O)C/C1=C/C=C1\CCC[C@]2(C)[C@@H]([C@H](C)CCCC(C)(C)O)CC[C@@H]12` [25-Hydroxyvitamin D3], for which the “cell protection against MERS-CoV infection” value in the series on MERS-CoV [2] is given as “protected Huh7 cells against MERS-CoV infection”.
With `CCCCCCCCCCCCCCC(Br)C(=O)O` (stereo not shown) [2-BP], the MERS-CoV replication result with MERS-CoV [3] is “inhibited MERS-CoV replication in a dose-dependent manner”. Moreover, in the series on hemagglutinin (HA), the palmitoylated-HA level result is listed as “Reduced levels of palmitoylated-HA” and the “total HA protein” value was “no impact on protein synthesis”.
As a reminder, the IC50 is the concentration needed to halve the response being measured. Regarding `C=C(c1ccc(C(=O)O)cc1)c1cc2c(cc1C)C(C)(C)CCC2(C)C` [bexarotene], the IC50 with MERS-CoV [4] (setting [23]) amounted to 875 ± 15 nM.
For orientation: CC50 means the concentration giving 50% cytotoxicity. Read a high CC50 as better tolerance by the cells. In the case of `CC1(C)CCC(C)(C)c2cc(C(=O)Nc3ccc(C(=O)O)cc3)ccc21` [AM580], the “concentrations inhibiting replication of AdV5” value in [5] is “nanomolar to low micromolar”. Further, the “cell protection against MERS-CoV infection” value in the series with MERS-CoV [2] was “protected cells against infection”. Further, the “antiviral potency of AM580 with RAR-α antagonist ER50891” value in the series on MERS-CoV [6] is “did not diminish the antiviral potency”. Further, the “binding of n-SREBP2 with its SRE” value on n-SREBP2 is “inhibited binding”. Besides, in the series on MERS-CoV [7], the “alveolar damage and interstitial inflammatory infiltration in lung tissues” value is “significantly improved”; the “mean body weight vs DMSO-treated control mice” value was “generally higher”; the “reduction of viral RNA content of brain tissues vs DMSO-treated control” value was determined as 4 log10; the “viral RNA content in lung tissues vs DMSO-treated control” value is given as “significantly (p<0.01) lower”. Further, the survival with MERS-CoV [7] (ip, 12.5 mg/kg/day) came to 100%. The “selectivity index (CC50/IC50)” value with MERS-CoV [8] came out at 507. For the same compound, the “MERS-CoV NP expression in epithelial cells of terminal bronchioles” value in the series with MERS-CoV [9] is “marked reduction in MERS-CoV NP expression”. The “virus-induced pro-inflammatory cytokine activation” value in the series on TNF-α, IL-1β, IL-8 is “suppress virus-induced pro-inflammatory cytokine activation”. Further, in series [10], the “cholesterol synthetic pathway genes with reduced mRNA expression (10/12)” value amounted to 83.3% and the “fatty acid metabolism genes with significant decreases in mRNA expression (13/17)” value turned out to be 76.5%. Further, the “loss of antiviral potency with increased n-SREBPs” value with MERS-CoV [11] is “about 1 log10 unit”. Further, the IC50 in the series on MERS-CoV [4] (read-out: IC50 against MERS-CoV infection) is < 1000 nM. For the same compound, in the series with MERS-CoV [12], the “immunofluorescence staining for MERS-CoV NP” value is recorded as “near-complete suppression of virus infection”. Besides, in the series on hemagglutinin (HA), the palmitoylated-HA level entry is listed as “Reduced levels of palmitoylated-HA” and the “total HA protein” value was “no impact on protein synthesis”. Moreover, the DMV formation entry in series [13] is listed as “no DMVs were noted”. Further, in the series with HMGCS promoter, the “HMGCS-promoter-Luc reporter gene activity” value was “concentration-dependent inhibition”. The compound also had a CC50 in the series with different cell lines of 100 to 200 µM. The “expression of MERS-CoV nucleoprotein (NP)” value in series [14] was “dramatically decreased”. In addition, in the series on MERS-CoV [15], the “anti-MERS-CoV activity (viral yield)” value is “showed anti-MERS-CoV activity” and the “virus yield on addition of sodium palmitate” value is “increased the virus yield”. Moreover, in the series on enterovirus-A71 (EV-A71), the “concentrations inhibiting replication of EV-A71” value is on record as “nanomolar to low micromolar”. In the series with MERS-CoV [16], the “PFU in intestinoid culture supernatant” value is on record as “no PFU were detectable”, the “expression of viral NP in intestinoids” value is given as “markedly decreased expression of viral NP” and the “reduction of viral titer relative to DMSO-treated control intestinoids” value is recorded as “approximately 6 log10 PFU/ml”. In the series with SARS-CoV, the “concentrations inhibiting replication of SARS-CoV” value is given as “nanomolar to low micromolar” and the “selectivity index (CC50/IC50)” value was determined as 114. Moreover, the “transactivation of TK, CMV and SV40 promoters” value in series [17] is on record as “did not inhibit transactivation of promoters”. Besides, at n-SREBP1 (Huh7 nuclear extraction, 20 μM), the “binding of n-SREBP1 with its SRE” value is given as “inhibited binding”. In addition, the “binding partner: n-SREBP1 or SRE (pre-incubation)” value at n-SREBP1 (pre-incubation 2 h) is listed as “bind with n-SREBP1 rather than SRE”. In the series on MERS-CoV [18], the “reduction of viral titer in the cell supernatant” value was > 3 logs. Also, in the series with Influenza A(H7N9) virus, the lung histopathology result is “ameliorated virus-associated pulmonary inflammatory infiltration and bronchopneumonia”; the mean body weight result is “gradually rebounded starting on day 8 post-challenge”; the “mean viral RNA load in lung tissues vs DMSO-treated control” value is reported as “significantly (p<0.01) lower”; the survival rate came out at 60%. In addition, in the series on Huh7 cells, the “accumulation of lipid droplets and cholesterol” value is “significantly reduced their production”. Also, the “concentrations inhibiting replication of ZIKV” value in the series on Zika virus (ZIKV) is recorded as “nanomolar to low micromolar”. Further, the “MERS-CoV NP-positive cells” value in the series on MERS-CoV [19] stood at 5.38%. Also, the teratogenicity entry in [20] is listed as “teratogenic effects”. Moreover, in the series with Calu-3 cells, the “virus-induced perturbation of lipid homeostasis (lipidome)” value is “antagonized this virus-induced perturbation of lipid homeostasis”. In the series on MERS-CoV [21], the “MERS-CoV replication in multiple cell types” value was “reduce MERS-CoV replication in multiple cell types”. Besides, the “FAS-promoter-Luc reporter gene activity” value in the series on FAS-promoter is listed as “concentration-dependent inhibition”. For the same compound, the “MERS-CoV attachment or internalization” value in the series with MERS-CoV [22] is “did not interfere with MERS-CoV attachment or internalization”.
Consider `C=C(C)[C@@H]1CC[C@]2(CO)CC[C@]3(C)[C@H](CC[C@@H]4[C@@]5(C)CC[C@H](O)C(C)(C)[C@@H]5CC[C@]43C)[C@@H]12` [betulin], for which the “reduction in viral titer” value with MERS-CoV [1] is “about 1 log PFU/ml”.
Take `CC1(C)CCC(C)(C)c2cc(NC(=O)c3ccc(C(=O)O)cc3)ccc21` [Tamibarotene]: in the series with MERS-CoV [4] (setting [23]), the IC50 is 320 ± 26 nM.
